Reference: US20150133456A1, “FLUOROERGOLINE DERIVATIVES AND USES THEREOF” (MAP PHARMACEUTICALS, INC., priority 2012, published 2015)

Experiments:
human 5-HT2B receptor [1] = target: T1, human 5-HT2B receptor (Homo sapiens, UniProt P41595); assay: Aequorin assay, antagonist activity at 5-HT2B; format: cell-based; conditions: reference agonist at its EC80; read-out: IC50, 5-HT2B antagonism
T1 construct: host or cells: CHO-K1 coexpressing mitochondrial apoaequorin
Experimental: Percentage inhibition values were determined for 2-CF3 dihydroergotamine on the 5-HT2B receptor.

human 5-HT2B receptor [2] = target: T1, human 5-HT2B receptor; assay: Aequorin assay, agonist activity at 5-HT2B; format: cell-based; conditions: reference agonist; read-out: EC50, 5-HT2B agonism
Experimental: Percentage activation values were determined for 2-CF3 dihydroergotamine at the 5-HT2B receptor.

[3] = Metabolism in human liver microsomes; conditions: 1 μM, 0.2 mg protein/mL, 0 to 60 minutes
Experimental: Metabolism of dihydroergotamine (DHE) and 2-CF3 DHE was evaluated in human liver microsomes. DHE mesylate and 2-CF3 DHE mesylate (1 μM each) were incubated separately with human liver microsomes (0.2 mg protein/mL) in triplicate at 37° C. in 0.2 mL (final volume) incubation buffer (50 mM potassium phosphate buffer, pH 7.4, 3 mM MgCl2 and 1 mM EDTA, pH7.4) with or without cofactor, NADPH-generating system. The NADPH-generating system consisted of 1 mM NADP, pH 7.4, 5 mM glucose-6-phosphate, pH 7.4 and 1 unit/mL glucose-6-phosphate dehydrogenase. DHE was added to the incubation mixtures in water. 2-CF3-DHE was added to incubation mixtures in 50:50 (v:v) acetonitrile:water. A low level of acetonitrile in the incubation was maintained to avoid any solvent effects on enzyme activity (typically at 0.5% or lower). Reactions were initiated by the addition of the NADPH-generating system and were terminated at 0, 15, 30 and 60 minutes after initiation by the addition of […], of stop reagent (acetonitrile) containing two internal standards (4′-hydroxydiclofenac-d4 and 1′-hydroxymidazolam-d4, 200 and 50 ng/mL in the final stopped incubation, respectively). The samples were then centrifuged and the supernatant fractions were analyzed by LC/MS/MS to quantify the formation of 8′-OH-DHE (metabolite) in the DHE samples and DHE and 8′-OH-DHE in the 2-CF3-DHE samples.

D2 receptor = target: T2, D2 receptor (Homo sapiens, UniProt P14416); assay: Agonist activity at the D2 receptor; format: cell-based; conditions: read-out: EC50, D2 receptor agonism
T2 construct: expressed in transfected cells
Experimental: The assay was performed analogously to the assay described in Example 4.

T1 sequence (P41595 whole entry): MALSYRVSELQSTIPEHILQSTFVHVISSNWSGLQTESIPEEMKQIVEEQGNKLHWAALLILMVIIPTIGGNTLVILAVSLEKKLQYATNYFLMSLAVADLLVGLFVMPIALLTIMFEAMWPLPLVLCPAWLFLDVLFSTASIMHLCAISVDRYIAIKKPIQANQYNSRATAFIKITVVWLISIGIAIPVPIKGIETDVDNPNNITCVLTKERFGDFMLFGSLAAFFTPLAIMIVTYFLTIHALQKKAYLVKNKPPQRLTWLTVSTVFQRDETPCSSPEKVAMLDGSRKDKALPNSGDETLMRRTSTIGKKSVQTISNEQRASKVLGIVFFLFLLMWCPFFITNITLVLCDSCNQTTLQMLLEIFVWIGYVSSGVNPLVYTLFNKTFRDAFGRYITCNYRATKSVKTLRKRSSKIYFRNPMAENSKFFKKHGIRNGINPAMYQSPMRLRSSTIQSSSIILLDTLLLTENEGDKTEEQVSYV
T2 sequence (P14416 whole entry): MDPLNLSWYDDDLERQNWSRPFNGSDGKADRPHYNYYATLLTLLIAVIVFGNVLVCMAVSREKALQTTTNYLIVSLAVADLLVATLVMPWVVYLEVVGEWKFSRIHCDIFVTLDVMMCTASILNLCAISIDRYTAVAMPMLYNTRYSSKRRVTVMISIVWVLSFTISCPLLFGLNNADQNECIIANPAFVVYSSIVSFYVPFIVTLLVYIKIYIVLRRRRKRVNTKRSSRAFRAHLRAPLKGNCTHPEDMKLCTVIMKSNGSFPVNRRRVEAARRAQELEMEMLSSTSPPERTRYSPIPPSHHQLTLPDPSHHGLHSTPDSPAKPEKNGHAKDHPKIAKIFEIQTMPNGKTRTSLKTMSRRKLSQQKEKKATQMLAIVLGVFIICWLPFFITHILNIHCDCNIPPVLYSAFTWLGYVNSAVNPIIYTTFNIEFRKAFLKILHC

SMILES: Cc1cc(NC(=O)Nc2ccc3c(ccn3C)c2)sn1 [SB204741, reference compound]
- IC50 (human 5-HT2B receptor [1]): 28.8 nM

SMILES: CC(N)Cc1c[nH]c2ccc(O)cc12 (stereo not drawn) [α-methyl-5-HT, reference compound]
- EC50 (human 5-HT2B receptor [2]): 1.01 nM

SMILES: CN1C[C@H](C(=O)N[C@]2(C)O[C@@]3(O)[C@@H]4CCCN4C(=O)[C@H](Cc4ccccc4)N3C2=O)C[C@@H]2c3cccc4[nH]cc(c34)C[C@H]21 [dihydroergotamine, reference compound]
- metabolism by human liver microsomes in the presence of NADPH [3]: extensively metabolized
- EC50 (D2 receptor): 8.35 nM
